In patent US10130630B2, “BTK inhibitors” (MERCK SHARP & DOHME CORP., priority 2014, dated 2018):
Where two headings read alike, the source gives them in different places.

Legend:
[1] = biological target: T1, BTK enzyme (full-length BTK, hBTK) (Homo sapiens, UniProt Q06187); experiment: Btk enzyme activity assay (LANCE TR-FRET); format: biochemical; details: 50 pM hBTK, 25 μM ATP, 60 minute compound and enzyme incubation, read-out: BTK binding IC50
T1 construct: recombinant protein from baculovirus-transfected Sf9 cells: full-length BTK, 6HIS-tag cleaved; 6HIS (cleaved yes); made in house; host or cells: baculovirus-transfected Sf9 cells
T1 sequence (Q06187 whole entry): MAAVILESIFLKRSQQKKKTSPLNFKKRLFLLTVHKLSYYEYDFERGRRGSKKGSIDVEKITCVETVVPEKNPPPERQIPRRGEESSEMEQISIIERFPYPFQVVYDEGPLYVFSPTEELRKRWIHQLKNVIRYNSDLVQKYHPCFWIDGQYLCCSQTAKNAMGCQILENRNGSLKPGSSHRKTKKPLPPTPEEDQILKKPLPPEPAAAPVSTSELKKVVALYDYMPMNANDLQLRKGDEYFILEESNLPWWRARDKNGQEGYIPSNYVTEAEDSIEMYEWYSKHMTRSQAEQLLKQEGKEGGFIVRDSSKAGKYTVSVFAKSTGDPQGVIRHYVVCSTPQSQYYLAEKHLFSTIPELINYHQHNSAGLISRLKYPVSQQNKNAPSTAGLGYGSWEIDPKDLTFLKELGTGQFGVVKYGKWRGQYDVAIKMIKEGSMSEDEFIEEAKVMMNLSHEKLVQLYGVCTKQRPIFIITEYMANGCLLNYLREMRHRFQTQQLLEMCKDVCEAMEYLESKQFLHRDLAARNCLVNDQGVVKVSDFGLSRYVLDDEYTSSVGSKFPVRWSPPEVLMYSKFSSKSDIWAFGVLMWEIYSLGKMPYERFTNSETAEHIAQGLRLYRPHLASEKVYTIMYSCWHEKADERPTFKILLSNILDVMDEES
Procedure: BTK enzymatic activity was determined with the LANCE (Lanthanide Chelate Excite) TR-FRET (Time-resolved fluorescence resonance energy transfer) assay. […] To each well of a black non-binding surface Corning 384-well microplate (Corning Catalog #3820), 5 nL of compound (2000 fold dilution in final assay volume of 10 μL) was dispensed, followed by the addition of 7.5 μL of 1× kinase buffer (50 mM Hepes 7.5, 10 mM MgCl2, 0.01% Brij-35, 1 mM EGTA, 0.05% BSA & 1 mM DTT) containing 5.09 pg/μL (66.67 pM) of BTK enzyme (recombinant protein from baculovirus-transfected Sf9 cells: full-length BTK, 6HIS-tag cleaved). Following a 60 minute compound and enzyme incubation, each reaction was initiated by the addition of 2.5 μL 1× kinase buffer containing 8 μM biotinylated “A5” peptide (Biotin-[…]-NH2) (SEQ.ID.NO.: 1), and 100 μM ATP. The final reaction in each well of 10 μL consists of 50 pM hBTK, 2 μM biotin-A5-peptide, and 25 μM ATP. Phosphorylation reactions were allowed to proceed for 120 minutes. Reactions were immediately quenched by the addition of 20 uL of 1× quench buffer (15 mM EDTA, 25 mM Hepes 7.3, and 0.1% Triton X-100) containing detection reagents (0.626 nM of LANCE-Eu-W1024-anti-phosphoTyrosine antibody, PerkinElmer and 86.8 nM of Streptavidin-conjugated Dylight 650, Dyomics/ThermoFisher Scientific). After 60 minutes incubation with detection reagents, reaction plates were read on a PerkinElmer EnVision plate reader using standard TR-FRET protocol. Briefly, excitation of donor molecules (Eu-chelate:anti-phospho-antibody) with a laser light source at 337 nm produces energy that can be transferred to Dylight-650 acceptor molecules if this donor:acceptor pair is within close proximity. Fluorescence intensity at both 665 nm (acceptor) and 615 nm (donor) are measured and a TR-FRET ratio calculated for each well (acceptor intensity/donor intensity). IC50 values were determined by 4 parameter robust fit of TR-FRET ratio values vs. (Log10) compound concentrations.
The following Table 2 provides specific IC50 values for all the examples. The IC50 values set forth below were determined according to Assay method described above.

[2] = tested on: adenosine uptake into HeLa cells; experiment: [3H]Adenosine uptake assay in HeLa cells; format: cell-based; details: 60 minutes uptake, read-out: ADU inhibition IC50 (adenosine uptake inhibition potency)
Procedure: Compounds were also screened in an adenosine uptake functional cellular assay using the protocol described below.
Adenosine uptake activity was determined by monitoring the accumulation of tritiated adenosine into HeLa cells (ATCC catalog # CCL-2) using a PMT-based radiometric detection instrument. In this assay, the potency (IC50) of each compound was determined from a ten point (1:3 serial dilution; final compound concentration range in assay from 10 μM to 0.032 nM) titration curve using the following outlined procedure. To each well of a 96-well CytoStar-T scintillating microplate (Perkin Elmer Catalog # RPNQ0163), 25 000 HeLa cells in 100 μL of growth medium comprising: Minimum Essential Media (Life Technologies Catalog # 11095-080)+10% (v/v) foetal bovine serum (FBS; Sigma Aldrich Catalog # F2442) was added. These cells were incubated overnight at 37° C. in a humidified atmosphere with 5% (v/v) CO2. After this time the growth medium was removed and replaced with 40 μL assay medium comprising: Hanks balanced salts solution (HBSS; Thermo Fisher Catalog # SH30268.01)+5% (v/v) FBS. Compound stock solutions in DMSO were diluted in assay medium to 2.5× final compound concentration maintaining a constant DMSO concentration of 0.25% (v/v). 40 μL of compound in assay medium was dispensed into individual wells of the Cytostar-T plates and the plates were incubated for 30 minutes under ambient laboratory conditions. Following this incubation, 20 μL of 500 nM [^3H]adenosine (American Radiolabeled Chemicals Inc. Catalog # ART0287) in assay medium was added and incubated for a further 60 minutes under ambient laboratory conditions. The amount of radiolabel accumulation was then determined using a Perkin Elmer Topcount NXT microplate reader. In brief, HeLa cells adhere to the bottom of the Cytostar-T plate, uptake of [^3H]adenosine into these cells brings the radiolabel into sufficient proximity to excite the scintillant in the base of the plates. These events are captured by single PMT, time-resolved coincidence counting. IC50 values were determined by 4 parameter robust fit of counts per second values vs. (Log10) compound concentrations.

SMILES | IC50 [1] [nM] | IC50 ([2]; Homo sapiens, HeLa) [nM] | IC50 [2] [nM]
CCOc1cc(C(=O)Nc2cc(C(F)(F)F)ccn2)ccc1-c1nc([C@@H]2CC[C@H]3CN(CC)C4(CC4)C(=O)N3C2)n2ccnc(N)c12 [Compound 44, 4-{8-amino-3-[(7′R,9a′S)-2′-ethyl-4′-oxohexahydro-2′H-spiro[cyclopropane-1,3′-pyrido[1,2-a]pyrazin]-7′-yl]imidazo[1,5-a]pyrazin-1-yl}-3-ethoxy-N-[4-(trifluoromethyl)pyridin-2-yl]benzamide] | 0.249 | 785 | –
CCOc1cc(C(=O)Nc2cc(C(F)(F)F)ccn2)ccc1-c1nc([C@@H]2CC[C@H]3[C@@H](O)C4(CC4)C(=O)N3C2)n2ccnc(N)c12 [Compound 11, 4-{8-amino-3-[(1′S,6′R,8a′S)-1′-hydroxy-3′-oxohexahydrospiro[cyclopropane-1,2′-indolizin]-6′-yl]imidazo[1,5-a]pyrazin-1-yl}-3-ethoxy-N-[4-(trifluoromethyl)pyridin-2-yl]benzamide] | 0.701 | 1990 | –
COc1cc(C(=O)Nc2cc(C(F)(F)F)ccn2)ccc1-c1nc([C@@H]2CC[C@H]3CNC4(CC4)C(=O)N3C2)n2ccnc(N)c12 [Compound 41, 4-{8-amino-3-[(7′R,9a′S)-4′-oxohexahydro-2′H-spiro[cyclopropane-1,3′-pyrido[1,2-a]pyrazin]-7′-yl]imidazo[1,5-a]pyrazin-1-yl}-3-methoxy-N-[4-(trifluoromethyl)pyridin-2-yl]benzamide] | 0.252 | 1340 | –
CCOc1cc(C(=O)Nc2cc(C(F)(F)F)ccn2)ccc1-c1nc(C2CCC3N(C2)C(=O)CNC32CC2)n2ccnc(N)c12 (centres unmarked) [Compound 39, 4-[8-amino-3-(4′-oxohexahydro-2′H,6′H-spiro[cyclopropane-1,1′-pyrido[1,2-a]pyrazin]-7′-yl)imidazol[1,5-a]pyrazin-1-yl]-3-ethoxy-N-[4-(trifluoromethyl)pyridin-2-yl]benzamide] | 0.322 | 1350 | –
COc1cc(C(=O)Nc2cc(C(F)(F)F)ccn2)cc(F)c1-c1nc([C@@H]2CC[C@@H]3N(C2)C(=O)C2(CC2)C3(F)F)n2ccnc(N)c12 [Compound 30, 4-{8-amino-3-[(6′R,8a′S)-1′,1′-difluoro-3′-oxohexahydrospiro[cyclopropane-1,2′-indolizin]-6′-yl]imidazo[1,5-a]pyrazin-1-yl}-3-fluoro-5-methoxy-N-[4-(trifluoromethyl)pyridin-2-yl]benzamide] | 1.61 | 1070 | –
CCOc1cc(C(=O)Nc2cc(C3CC3)ccn2)cc(F)c1-c1nc([C@@H]2CC[C@@H]3N(C2)C(=O)CC32CC2)n2ccnc(N)c12 [Compound 21, 4-{8-amino-3-[(6′R,8a′S)-3′-oxohexahydro-5′H-spiro[cyclopropane-1,1′-indolizin]-6′-yl]imidazo[1,5-a]pyrazin-1-yl}-N-(4-cyclopropylpyridin-2-yl)-3-ethoxy-5-fluorobenzamide] | 0.16 | 1060 | –
CCOc1cc(C(=O)Nc2cc(C(F)(F)F)ccn2)ccc1-c1nc([C@H]2CN3C(=O)C4(CC4)NC[C@@H]3CO2)n2ccnc(N)c12 [Compound 45, 4-{8-amino-3-[(3′R,9a′R)-6′-oxohexahydrospiro[cyclopropane-1,7′-pyrazino[2,1-c][1,4]oxazin]-3′-yl]imidazo[1,5-a]pyrazin-1-yl}-3-ethoxy-N-[4-(trifluoromethyl)pyridin-2-yl]benzamide] | 0.241 | 1580 | –
Cc1ccnc(NC(=O)c2ccc(-c3nc([C@@H]4CC[C@H]5C(=O)C6(CC6)C(=O)N5C4)n4ccnc(N)c34)cc2)c1 [Compound 8, 4-{8-amino-3-[(6′R,8a′S)-1′,3′-dioxohexahydrospiro[cyclopropane-1,2′-indolizin]-6′-yl]imidazo[1,5-a]pyrazin-1-yl}-N-(4-methylpyridin-2-yl)benzamide] | 2.07 | 50.9 | –

The remaining molecules from weak to strong by IC50 [1], led by results:

IC50 [1] [nM] | IC50 ([2]; Homo sapiens, HeLa) [nM] | IC50 [2] [nM] | SMILES
5.9 | – | 2090 | CCOc1cc(C(=O)Nc2cc(C(F)(F)F)n(C)n2)cc(F)c1-c1nc(C2CCC3N(C2)C(=O)CC32CC2)n2c(F)cnc(N)c12 (centres unmarked) [Compound 23, 4-[8-amino-5-fluoro-3-(3′-oxohexahydro-5′H-spiro[cyclopropane-1,1′-indolizin]-6′-yl)imidazo[1,5-a]pyrazin-1-yl]-3-ethoxy-5-fluoro-N-[1-methyl-5-(trifluoromethyl)-1H-pyrazol-3-yl]benzamide]
5.61 | – | 1190 | CCOc1cc(C(=O)Nc2cc(C(F)(F)F)ccn2)ccc1-c1nc(C2CCC3N(C2)C(=O)CNC32CC2)n2ccnc(N)c12 (centres unmarked) [Compound 43, 4-[8-amino-3-(4′-oxohexahydro-2′H,6′H-spiro[cyclopropane-1,1′-pyrido[1,2-a]pyrazin]-7′-yl)imidazo[1,5-a]pyrazin-1-yl]-3-ethoxy-N-[4-(trifluoromethyl)pyridin-2-yl]benzamide]
1.28 | 828 | – | CCOc1cc(C(=O)Nc2cc(C(F)(F)F)ccn2)ccc1-c1nc([C@@H]2CC[C@H]3[C@@H](OC)C4(CC4)C(=O)N3C2)n2ccnc(N)c12 [Compound 14, 4-(8-amino-3-((1′S,6′R,8a′S)-1′-methoxy-3′-oxohexahydro-1′H-spiro[cyclopropane-1,2′-indolizin]-6′-yl)imidazo[1,5-a]pyrazin-1-yl)-3-ethoxy-N-(4-(trifluoromethyl)pyridin-2-yl)benzamide]
1.25 | 1340 | – | CCOc1cc(C(=O)Nc2cc(C(F)(F)F)ccn2)ccc1-c1nc([C@H]2CN3C(=O)[C@H]4CCCN4C[C@@H]3CO2)n2ccnc(N)c12 [Compound 35, 4-{8-amino-3-[(3R,6aR,11aR)-6-oxooctahydro-1H,6H-pyrrolo [1′,2′:4,5]pyrazino[2,1-c][1,4]oxazin-3-yl]imidazo[1,5-a]pyrazin-1-yl}-3-ethoxy-N-[4-(trifluoromethyl)pyridin-2-yl] benzamide]
0.173 | 168 | – | Nc1nccn2c([C@@H]3CC[C@H]4CNC5(CC5)C(=O)N4C3)nc(-c3ccc(C(=O)Nc4cc(C(F)(F)F)ccn4)cc3)c12 [Compound 40, 4-{8-amino-3-[(7′R,9a′S)-4′-oxohexahydro-2′H-spiro[cyclopropane-1,3′-pyrido[1,2-a]pyrazin]-7′-yl]imidazo[1,5-a]pyrazin-1-yl}-N-[4-(trifluoromethyl)pyridin-2-yl]benzamide]
